Results as given in paper PMC12016938, “A small molecule PKCε inhibitor reduces hyperalgesia induced by paclitaxel or opioid withdrawal” (JCI Insight, 2025).
Where “and” joins values, the source holds several entries; their conditions need not be identical. Equal values may be shown once. Where a name gives a salt, the structure may show the parent alone.

Test system: self-administration (addictive potential)
Experiment: I.v. self-administration of CP612, between-session progressive ratio and demand curve
Procedure: We tested the addictive potential of CP612 by examining the extent to which rats are willing to work to obtain CP612. Rats were initially trained to self-administer either saline, morphine (500 μg/kg/i.v. infusion), or 1 of 3 different doses of CP612 (75, 150, or 300 μg/kg/i.v. infusion) for 4 days at fixed ratio 1 (FR1, where 1 nose poke delivers 1 infusion).
During the second phase, the ratio to obtain an infusion increased geometrically every other day (FR1, FR3, FR6, FR12, FR24, FR48, and FR96).
Data (number of self-infusions) were also fitted in an economic-demand curve, which provides an estimate of the motivation to obtain drugs and their addictive potential ([20]). We measured elasticity (α), which is the relative change in consumption as a function of price (i.e., ratio of nose pokes required to obtain an infusion). Behavior is considered “inelastic” when consumption is insensitive to price and “elastic” when consumption is sensitive to price. We also measured Pmax, which is the price at which intake switches from inelastic to elastic. […] (Figure 8B).
Rats not immediately anesthetized were eliminated from the study.
Following this initial acquisition phase at FR1, the ratio to obtain the drug was increased geometrically every other day: FR3 (3 nose pokes are required to obtain 1 infusion of morphine), FR6, FR12, FR24, FR48, and FR96. This allows for analysis of drug consumption as a function of “price” using demand curves for behavioral economics, which can estimate the motivation to obtain drugs and their “addictive potential” ([20]). For this, data from each rat were fitted to the equation log Q = log Q0 + k (e ^–α(Q0 ^C) – 1), where Q represents consumption (number of self-infusions), and Q0 represents the level of consumption at the lowest price. C represents price for the drug (i.e., the ratio), and k is set to a constant accounting for the estimated range of consumption in logarithmic units (k = 4 in these studies). The symbol α is the relative change in consumption across changes in price (ratio). Behavior is considered “inelastic” when consumption is insensitive to price (i.e., the curve is flat, and consumption is maintained despite increases in price), and it switches to “elastic” when consumption is sensitive to price (i.e., when the curve is steep and consumption declines with increases in price). […] We also compared groups for their average intake in the consumption-price curves by measuring α (elasticity) and Pmax.

[1] = morphine, individual rats, column in the AH block

`CN1CC[C@]23c4c5ccc(O)c4O[C@H]2[C@@H](O)C=C[C@H]3[C@H]1C5` [Morphine, Morphine sulfate, reference compound] was tested, and the “AVG Latency (FR3)” value (morphine, individual rats) was 0.17 and 0.173 and 1.3 and 0.2 and 0.6 and 1.9, the “AVG Latency (FR6)” value (morphine, individual rats) was 1.3 and 0.175 and 0.8 and 2.9 and 1.1 and 1.4 and the “AVG Latency (FR12)” value (morphine, individual rats) was 0.435 and 0.663 and 0.7 and 0.227 and 2.8 and 2.7. The “AVG Latency (FR24)” value (morphine, individual rats) was 1.2 and 0.75 and 0.9 and 0.754 and 0.6 and 2.4, the “AVG Latency (FR48)” value (morphine, individual rats) was 0.8 and 0.428 and 0.738 and 0.951 and 1.0 and the “AVG Latency (FR96)” value (morphine, individual rats) was 0.9 and 0.7 and 1.4 and 0.6 and 1.6. The “D1 AH (FR1)” value (morphine, individual rats) was 15 and 13 and 16 and 19 and 12, the “D1 AH (FR3)” value (morphine, individual rats) was 44 and 27 and 25 and 19 and 17 and 29 and the “D1 AH (FR6)” value (morphine, individual rats) was 38 and 54 and 48 and 37 and 30 and 17. For the same compound, the “D1 AH (FR12)” value (morphine, individual rats) was 76 and 90 and 97 and 95 and 40 and 39, the “D1 AH (FR24)” value (morphine, individual rats) was 167 and 144 and 79 and 198 and 125 and 58 and the “D1 AH (FR48)” value (morphine, individual rats) was 269 and 254 and 72 and 297 and 145 and 69. For the same compound, the “D1 AH (FR96)” value (morphine, individual rats) was 243 and 334 and 76 and 204 and 237 and 36, the “D1 IH (FR1)” value (morphine, individual rats) was 11 and 22 and 18 and 9 and 7 and the “D1 IH (FR3)” value (morphine, individual rats) was 16 and 9 and 5 and 2 and 13 and 11. For the same compound, the “D1 IH (FR6)” value (morphine, individual rats) was 3 and 5 and 7 and 18 and 10, the “D1 IH (FR12)” value (morphine, individual rats) was 10 and 5 and 16 and 3 and 7 and the “D1 IH (FR24)” value (morphine, individual rats) was 14 and 6 and 19 and 5 and 10. The “D1 IH (FR48)” value (morphine, individual rats) was 8 and 18 and 11 and 9 and 7 and 12, the “D1 IH (FR96)” value (morphine, individual rats) was 9 and 26 and 16 and 12 and 28 and the “D1 Inf (FR1)” value (morphine, individual rats) was 9 and 8 and 12 and 10. The “D1 Inf (FR3)” value (morphine, individual rats) was 11 and 8 and 5 and 4, the “D1 Inf (FR6)” value (morphine, individual rats) was 6 and 7 and 4 and 2 and the “D1 Inf (FR12)” value (morphine, individual rats) was 6 and 7 and 3. The “D1 Inf (FR24)” value (morphine, individual rats) was 6 and 5 and 3 and 8 and 4 and 2, the “D1 Inf (FR48)” value (morphine, individual rats) was 5 and 1 and 2 and the “D1 Inf (FR96)” value (morphine, individual rats) was 2 and 3 and 0. For the same compound, the “D1 Latency (FR1)” value (morphine, individual rats) was 9.3 and 15.1 and 26.3 and 3.9 and 5.9 and 0.853, the “D1 Latency (FR3)” value (morphine, individual rats) was 0.238 and 0.2 and 1.5 and 0.9 and 0.358 and the “D1 Latency (FR6)” value (morphine, individual rats) was 0.072 and 0.225 and 1.0 and 0.4 and 0.178 and 1.6. For the same compound, the “D1 Latency (FR12)” value (morphine, individual rats) was 0.038 and 1.0 and 0.6 and 0.032 and 1.6 and 1.2, the “D1 Latency (FR24)” value (morphine, individual rats) was 1.5 and 0.075 and 0.5 and 0.328 and 0.538 and 3.9 and the “D1 Latency (FR48)” value (morphine, individual rats) was 0.107 and 0.4 and 0.5 and 1.0 and 1.4 and 1.2. The “D1 Latency (FR96)” value (morphine, individual rats) was 0.7 and 0.8 and 1.4 and 0.438 and 2.3, the “D2 AH (FR1)” value (morphine, individual rats) was 16 and 10 and 8 and 18 and 17 and the “D2 AH (FR3)” value (morphine, individual rats) was 43 and 31 and 37 and 17 and 20 and 19. The “D2 AH (FR6)” value (morphine, individual rats) was 49 and 53 and 43 and 40 and 32 and 25, the “D2 AH (FR12)” value (morphine, individual rats) was 48 and 86 and 32 and 113 and 38 and 44 and the “D2 AH (FR24)” value (morphine, individual rats) was 162 and 155 and 80 and 176 and 120 and 64. For the same compound, the “D2 AH (FR48)” value (morphine, individual rats) was 196 and 251 and 75 and 213 and 125 and 57, the “D2 AH (FR96)” value (morphine, individual rats) was 164 and 368 and 38 and 192 and 184 and 36 and the “D2 IH (FR1)” value (morphine, individual rats) was 9 and 4 and 12 and 6 and 11. For the same compound, the “D2 IH (FR3)” value (morphine, individual rats) was 4 and 6 and 12 and 14 and 17 and 7, the “D2 IH (FR6)” value (morphine, individual rats) was 10 and 9 and 13 and 8 and 12 and the “D2 IH (FR12)” value (morphine, individual rats) was 12 and 14 and 22 and 7 and 1. For the same compound, the “D2 IH (FR24)” value (morphine, individual rats) was 8 and 14 and 11 and 10 and 7, the “D2 IH (FR48)” value (morphine, individual rats) was 9 and 13 and 27 and 12 and 14 and the “D2 IH (FR96)” value (morphine, individual rats) was 8 and 11 and 15 and 13 and 24. For the same compound, the “D2 Inf (FR1)” value (morphine, individual rats) was 11 and 9 and 7 and 10 and 12, the “D2 Inf (FR3)” value (morphine, individual rats) was 10 and 9 and 11 and 5 and the “D2 Inf (FR6)” value (morphine, individual rats) was 8 and 7 and 6 and 4. The “D2 Inf (FR12)” value (morphine, individual rats) was 4 and 6 and 2 and 9 and 3, the “D2 Inf (FR24)” value (morphine, individual rats) was 6 and 3 and 7 and 4 and 2 and the “D2 Inf (FR48)” value (morphine, individual rats) was 4 and 5 and 1 and 2. For the same compound, the “D2 Inf (FR96)” value (morphine, individual rats) was 1 and 3 and 0, the “D2 Latency (FR1)” value (morphine, individual rats) was 0.152 and 0.662 and 1.3 and 0.455 and 0.133 and 2.0 and the “D2 Latency (FR3)” value (morphine, individual rats) was 0.1 and 0.137 and 1.1 and 0.19 and 0.327 and 3.5. For the same compound, the “D2 Latency (FR6)” value (morphine, individual rats) was 2.5 and 0.125 and 0.7 and 5.3 and 1.9 and 1.1, the “D2 Latency (FR12)” value (morphine, individual rats) was 0.8 and 0.372 and 0.7 and 0.422 and 4.1 and the “D2 Latency (FR24)” value (morphine, individual rats) was 0.9 and 1.4 and 1.3 and 1.2 and 0.7 and 0.8. For the same compound, the “D2 Latency (FR48)” value (morphine, individual rats) was 1.4 and 0.457 and 1.0 and 0.9 and 0.543 and 0.367, the “D2 Latency (FR96)” value (morphine, individual rats) was 1.1 and 0.555 and 1.4 and 0.748 and 0.66 and 1.0 and the “D3 AH (FR1)” value (morphine, individual rats) was 24 and 13 and 8 and 20 and 17. The “D3 IH (FR1)” value (morphine, individual rats) was 18 and 4 and 15 and 3 and 20 and 8, the “D3 Inf (FR1)” value (morphine, individual rats) was 10 and 7 and 14 and the “D3 Latency (FR1)” value (morphine, individual rats) was 0.3 and 0.137 and 7.8 and 0.352 and 0.9 and 0.327. The “D4 AH (FR1)” value (morphine, individual rats) was 23 and 12 and 13 and 17 and 15, the “D4 IH (FR1)” value (morphine, individual rats) was 3 and 5 and 8 and 6 and 9 and the “D4 Inf (FR1)” value (morphine, individual rats) was 13 and 10 and 11 and 9 and 8. For the same compound, the “D4 Latency (FR1)” value (morphine, individual rats) was 0.06 and 0.143 and 4.0 and 0.342 and 1.1, the “last AH (FR1)” value (morphine, individual rats) was 21 and 12 and 18 and 22 and 14 and 10 and the “last IH (FR1)” value (morphine, individual rats) was 4 and 1 and 3 and 7 and 9. The “last Inf (FR1)” value (morphine, individual rats) was 15 and 10 and 12 and 17 and 9 and 7, the “last Latency (FR1)” value (morphine, individual rats) was 0.5 and 0.7 and 2.0 and 0.017 and 0.4 and 1.1 and the “last-1 AH (FR1)” value (morphine, individual rats) was 23 and 12 and 13 and 17 and 15. The “last-1 IH (FR1)” value (morphine, individual rats) was 3 and 5 and 8 and 6 and 9, the “last-1 Inf (FR1)” value (morphine, individual rats) was 13 and 10 and 11 and 9 and 8 and the “last-1 Latency (FR1)” value (morphine, individual rats) was 0.06 and 0.143 and 4.0 and 0.342 and 1.1. The “last-2 AH (FR1)” value (morphine, individual rats) was 24 and 13 and 8 and 20 and 17, the “last-2 IH (FR1)” value (morphine, individual rats) was 18 and 4 and 15 and 3 and 20 and 8 and the “last-2 Inf (FR1)” value (morphine, individual rats) was 10 and 7 and 14. The “last-2 Latency (FR1)” value (morphine, individual rats) was 0.3 and 0.137 and 7.8 and 0.352 and 0.9 and 0.327, the “last-3 AH (FR1)” value (morphine, individual rats) was 24 and 13 and 8 and 18 and 10 and 17 and the “last-3 IH (FR1)” value (morphine, individual rats) was 18 and 4 and 12 and 6 and 11. The “last-3 Inf (FR1)” value (morphine, individual rats) was 10 and 7 and 11 and 12, the “last-3 Latency (FR1)” value (morphine, individual rats) was 0.3 and 0.137 and 1.3 and 0.455 and 0.133 and 2.0 and the “AVG Inf (FR1_D1 to D4)” value [1] was 19.5 and 12.0 and 11.0 and 16.8 and 14.8 and 15.3. The “AVG Inf (FR1_Last 2 FR1 days)” value [1] was 22.0 and 12.0 and 15.5 and 17.5 and 12.5, the “AVG Inf (FR1_Last 4 FR1 days)” value [1] was 23.0 and 12.5 and 11.8 and 18.3 and 13.5 and 14.8 and the “AVG AH (FR3)” value (per-rat average) was 24.0 and 20.5 and 23.0. The “AVG AH (FR6)” value (per-rat average) was 55.0 and 42.0 and 46.5, the “AVG AH (FR12)” value (per-rat average) was 107.5 and 82.0 and 88.0 and the “AVG AH (FR24)” value (per-rat average) was 143.0 and 145.0 and 172.0. The “AVG AH (FR48)” value (per-rat average) was 138.0 and 149.0 and 142.5, the “AVG AH (FR96)” value (per-rat average) was 116.5 and 141.0 and 156.0 and the “AVG IH (FR1_Last 2 FR1 days)” value (per-rat average) was 1.5 and 3.0. The “AVG IH (FR6)” value (per-rat average) was 4.5 and 8.5 and 7.5, the “AVG IH (FR48)” value (per-rat average) was 16.0 and 12.0 and 23.5 and the “AVG Inf (FR1_D1 to D4)” value (per-rat average) was 6.0 and 7.3 and 9.3. For the same compound, the “AVG Inf (FR1_Last 2 FR1 days)” value (per-rat average) was 6.5 and 7.5, the “AVG Inf (FR1_Last 4 FR1 days)” value (per-rat average) was 6.0 and 7.0 and 8.3 and the “AVG Inf (FR3)” value (per-rat average) was 7.5 and 5.5 and 7.0. The “AVG Inf (FR6)” value (per-rat average) was 8.0 and 6.5 and 7.0, the “AVG Inf (FR12)” value (per-rat average) was 8.5 and 5.5 and 6.5 and the “AVG Inf (FR24)” value (per-rat average) was 5.0 and 5.5 and 6.5. The “AVG Inf (FR48)” value (per-rat average) was 2.5, the “AVG Inf (FR96)” value (per-rat average) was 1.0 and the “AVG Latency (FR1_D1 to D4)” value (per-rat average) was 0.7 and 1.3 and 0.8. For the same compound, the “AVG Latency (FR3)” value (per-rat average) was 0.3 and 0.6 and 0.339 and the “AVG Latency (FR96)” value (per-rat average) was 0.8 and 0.7 and 0.9.
